Laboratory results published in publication PMC9775191, “A Subset Screen of the Compounds Australia Scaffold Library Identifies 7-Acylaminodibenzoxazepinones as Potent and Selective Hits for Anti-Giardia Drug Discovery” (Biomedicines, 2022).

System: G. duodenalis BRIS/91/HEPU/1279
Assay: Primary Giardia screen at 10 µM (live-cell imaging, automated counting)
Type: cell-based, Giardia duodenalis
Details: for % Inhibition n=1 48h / % Inhibition n=1 24h: first singlicate assay; for % Inhibition n=2 24h / % Inhibition n=2 48h: re-assessment
In short: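 Singlicate, 10 μM final, 0.2% DMSO; sealed chambers, 3% O2/5% CO2/N2. Counts by live-cell imaging at 24 h and 48 h. % growth vs vehicle, media background subtracted; Z' per plate.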

## O=C(c1cccc(-c2nc(-c3ccc(F)cc3)no2)c1)N1CCN(c2ccccc2)CC1 [SN00795713]
  % Inhibition n=1 48h: 0.9%

## CCN(CC)C(=O)c1cc(-c2cccs2)nc2cc(C)c(C)cc12 [SN00802800]
  % Inhibition n=1 48h: 16.9%

## C=C(C)CN1Cc2ccccc2CC1c1nnc(CC)o1 (stereo not shown) [SN00783147]
  % Inhibition n=1 48h: 0.0%

## CC(=O)N1CCCN(C(=O)c2cc(C3CC3)[nH]n2)CC1 [SN00778148]
  % Inhibition n=1 48h: 1.1%

## CCc1ccc(C2=Nc3ncnn3/C2=N/Cc2ccc(F)cc2)cc1 [SN00793051]
  % Inhibition n=1 48h: 1.3%

## CC1CN(c2nc3c(c(=O)[nH]c(=O)n3C)n2CC(=O)O)CC(C)O1 (stereo not shown) [SN00776554]
  % Inhibition n=1 48h: 4.6%

## COc1ccc(CNC(=O)c2[nH]c3cc(C)sc3c2CN2CCCC2)cc1 [SN00798517]
  % Inhibition n=1 48h: 35.5%

## O=C(NC1CCCCCC1)c1cc2cn(C3CC3)cc2s1 [SN00802023]
  Average % Inhibition 24h: 1.8%
  % Inhibition n=1 24h: 3.6%
  % Inhibition n=2 24h: 0.0%
  Average % Inhibition 48h: 46.9%
  % Inhibition n=1 48h: 43.4%
  % Inhibition n=2 48h: 50.4%

## O=S(=O)(Cc1ccc(Cl)cc1)c1nc2ccccc2nc1N1CCC2(CC1)OCCO2 [SN00794883]
  % Inhibition n=1 48h: 15.2%

## CC(NC(=O)c1cc2ccncc2[nH]1)c1ccccc1 (stereo not shown) [SN00798186]
  % Inhibition n=1 48h: 4.2%

## Cc1ccc(-n2nc3c(c2NC(=O)COc2ccccc2)CS(=O)(=O)C3)c(C)c1 [SN00802785]
  % Inhibition n=1 48h: 16.6%

## CC(C)OCCCNC(=O)Cn1c(=O)c(=O)n(Cc2ccncc2)c2ncccc21 [SN00793629]
  % Inhibition n=1 48h: 13.1%

## CCOCCCNC(=O)N1Cc2ccccc2-n2cccc2C1c1ccccc1 (stereo not shown) [SN00791279]
  % Inhibition n=1 48h: 0.0%

## CC1CCC(NC(=O)c2ccc(-c3noc(C4CCN(C(=O)c5ccccc5)CC4)n3)cc2)CC1 (stereo not shown) [SN00797379]
  % Inhibition n=1 48h: 0.0%

## Cn1c(C(=O)N2CCCC(C(=O)NCCc3ccccc3)C2)cc2sccc21 (stereo not shown) [SN00785483]
  % Inhibition n=1 48h: 4.8%

## CC(=O)c1ccc(NC(=O)C2CC(=O)N=C(N3CCN(Cc4ccc5c(c4)OCO5)CC3)N2)cc1 (stereo not shown) [SN00788633]
  % Inhibition n=1 48h: 6.8%

## CCOC(=O)c1ccsc1NC(=O)CN1CCNC(=O)CC1c1ccccc1 (stereo not shown) [SN00772435]
  % Inhibition n=1 48h: 0.0%

## O=S(=O)(c1ccc(-c2cnc(C3CCC3)o2)s1)N1CCC2(CC1)OCCO2 [SN00795093]
  % Inhibition n=1 48h: 7.0%

## Cc1ccc2c(c1)n(Cc1ccc(Cl)cc1)c(=O)c1nc(C(=O)NCCc3cccs3)nn12 [SN00794982]
  % Inhibition n=1 48h: 29.9%

## Fc1ccc(C2=NC(c3cccs3)=Nc3cc(Cl)ccc3N2)cc1 [SN00785914]
  % Inhibition n=1 48h: 0.0%

## Cc1nc(N2CCOCC2)c2c(C(=O)N3CCCC3)c(C)oc2n1 [SN00788445]
  % Inhibition n=1 48h: 0.0%

## Cc1ccc(-n2nc(C)c3sc(N4CCCN(C(=O)c5ccc6c(c5)OCO6)CC4)nc32)cc1 [SN00803168]
  % Inhibition n=1 48h: 0.0%

## COc1ccc(CC(=O)NC2CCN(c3nc4c(s3)c(C)nn4-c3cccc(C)c3)CC2)cc1 [SN00803147]
  % Inhibition n=1 48h: 1.5%

## CN1CCN(CC2CCN(C(=O)Cc3cccc4ccccc34)CC2)CC1 [SN00783181]
  % Inhibition n=1 48h: 17.7%

## Cc1noc(COC2CCCN(C(=O)c3nn(C)c4ccccc34)C2)n1 (stereo not shown) [SN00801154]
  % Inhibition n=1 48h: 0.0%

## COc1ccc(N2C(=O)c3cc(-c4ccco4)nn3CC2(C)C(=O)NC(C)(C)C)cc1 (stereo not shown) [SN00787372]
  % Inhibition n=1 48h: 16.8%

## CCOc1ccc2nc(C(=O)N3CCN(c4cccc(C)c4C)CC3)cn2n1 [SN00799885]
  % Inhibition n=1 48h: 9.3%

## O=S(=O)(c1cccs1)N1CCc2[nH]cnc2C1 [SN00798784]
  % Inhibition n=1 48h: 0.0%

## O=C(O)c1cccc(Nc2nc(Nc3ccccc3)nc(N3CCCC3)n2)c1 [SN00783666]
  % Inhibition n=1 48h: 0.3%

## Cc1cc(N2CCC(C(=O)N3CCN(c4ccc(F)cc4)CC3)CC2)n2nc(-c3ccccc3)cc2n1 [SN00795072]
  % Inhibition n=1 48h: 0.0%

## Cc1cccc(-c2noc(CN3CC(n4cc(C)cn4)C3)n2)c1 [SN00772979]
  % Inhibition n=1 48h: 6.1%

## Cc1cc(Cl)ccc1OCCCC(=O)Nc1nc2ccccc2[nH]1 [SN00783684]
  % Inhibition n=1 48h: 27.8%

## CC1(C(=O)NCc2ccccc2)Cn2c(ccc2-c2ccco2)C(=O)N1CCc1ccco1 (stereo not shown) [SN00787709]
  % Inhibition n=1 48h: 0.0%

## CCCn1nccc1-c1csc(S(=O)(=O)NC(C)C)c1 [SN00797311]
  % Inhibition n=1 48h: 9.7%

## CSc1ccc(-c2csc(CN3CCN(C(C)=O)CC3)n2)cc1 [SN00778360]
  % Inhibition n=1 48h: 12.1%

## O=C(c1cc(CN2CCCC2)on1)N1CCN(C(=O)c2ccco2)CC1 [SN00791727]
  % Inhibition n=1 48h: 0.0%

## CC1(c2nc(C3CC3)no2)CCCN(C(=O)CCC2CCCC2)C1 (stereo not shown) [SN00801392]
  % Inhibition n=1 48h: 3.8%

## Cc1c(N2CCC(C(=O)NC3CCCCCC3)CC2)c(=O)n(CC(C)C)c(=O)n1-c1ccccc1 [SN00790002]
  % Inhibition n=1 48h: 9.5%

## CCOC(=O)c1sc(N2C(=O)C(O)=C(C(=O)c3ccco3)C2c2ccc(OC)cc2)nc1C (stereo not shown) [SN00776656]
  % Inhibition n=1 48h: 6.9%

## Cc1ccc(S(=O)(=O)N(C)c2ccsc2C(=O)Nc2ccc(C)c(C)c2)cc1 [SN00797041]
  % Inhibition n=1 48h: 12.0%

## Cc1ccc(S(=O)(=O)[C@H]2CS(=O)(=O)C[C@@H]2N2CCC(C(N)=O)CC2)cc1 (relative stereo) [SN00786616]
  % Inhibition n=1 48h: 0.0%

## CC(C)CCNC(=O)C1(C)CCC(=O)N1CCCN1CCN(c2cccc(Cl)c2)CC1 (stereo not shown) [SN00784585]
  % Inhibition n=1 48h: 25.4%

## Cc1ccc(C(=O)N2CCCN(S(C)(=O)=O)CC2)c(=O)[nH]1 [SN00807837]
  % Inhibition n=1 48h: 19.8%

## COc1ccc(S(=O)(=O)N2CCCC(C)(C(=O)NCc3ccc(F)cc3)C2)cc1 (stereo not shown) [SN00795932]
  % Inhibition n=1 48h: 8.4%

## Cc1cccc(-c2nc(-c3ccc(NS(C)(=O)=O)cc3)no2)c1 [SN00795250]
  % Inhibition n=1 48h: 9.2%

## OC(CN1CCCN(C2CC2)CC1)c1ccccc1C(F)(F)F (stereo not shown) [SN00782563]
  % Inhibition n=1 48h: 5.9%

## Cc1cccc(-c2noc(C3CCCN3S(=O)(=O)c3ccc(C(C)(C)C)cc3)n2)c1 (stereo not shown) [SN00797487]
  % Inhibition n=1 48h: 0.0%

## CCOC(=O)c1csc(-n2nc(-c3cccc(OC(C)=O)c3)cc2C(F)(F)F)n1 [SN00789527]
  % Inhibition n=1 48h: 21.7%

## COc1ccc(C2CCC(=O)N2CCN2CCOCC2)cc1 (stereo not shown) [SN00801430]
  % Inhibition n=1 48h: 34.6%

## Cc1ccccc1CS(=O)(=O)Cc1ccc(-c2nc(-c3ccc(Br)cc3)no2)o1 [SN00790667]
  % Inhibition n=1 48h: 0.0%

## CCCCC(=O)N1CCN(S(=O)(=O)c2c[nH]c3ncccc23)CC1 [SN00781078]
  % Inhibition n=1 48h: 2.4%

## Cc1nsc(N2CCCN(C(=O)NCc3ccccc3C)CC2)n1 [SN00782653]
  % Inhibition n=1 48h: 0.0%

## COCCNC(=O)C1(C)Cn2c(cc3ccsc32)C(=O)N1c1ccc(OC)c(OC)c1 (stereo not shown) [SN00789817]
  % Inhibition n=1 48h: 0.0%

## CSc1ccccc1NC(=O)C1CCN(S(C)(=O)=O)c2ccccc2O1 (stereo not shown) [SN00794287]
  % Inhibition n=1 48h: 8.2%

## CCOC(=O)CC(NC(=O)Nc1cc(F)c2[nH]c(=O)ccc2c1)c1ccccc1 (stereo not shown) [SN00795424]
  % Inhibition n=1 48h: 4.9%

## O=C(c1ccc(Cl)c(S(=O)(=O)NCC2CCCO2)c1)N1CC=C(c2ccccc2)CC1 (stereo not shown) [SN00769948]
  % Inhibition n=1 48h: 6.8%

## Cc1nn(-c2nc(-c3ccccc3)cs2)c(O)c1CC(=O)N1CCN(c2ccc(F)cc2)CC1 [SN00786652]
  % Inhibition n=1 48h: 0.0%

## C=CCc1ccc(OCC(O)CN2C(=O)NC(C)(c3ccccn3)C2=O)c(OC)c1 (stereo not shown) [SN00780622]
  % Inhibition n=1 48h: 48.2%

## O=C1C(=O)N(Cc2coc(-c3ccc(Cl)cc3)n2)C(=O)N1Cc1ccccc1 [SN00777999]
  % Inhibition n=1 48h: 18.6%

## Cc1ccc(CNC(=O)Cn2c(C)cc(C)c(-c3nc(-c4ccccc4)no3)c2=O)cc1 [SN00792891]
  % Inhibition n=1 48h: 0.0%

## Cc1ccc(-n2nc(N3CCC(C(=O)NCC4CCCO4)CC3)ccc2=O)cc1Cl (stereo not shown) [SN00790174]
  % Inhibition n=1 48h: 0.0%

## Cc1ccc(Cn2ccc3nc(N4CCCCC4)ncc3c2=O)cc1 [SN00802904]
  % Inhibition n=1 48h: 15.1%

## COc1ccc(CNS(=O)(=O)c2ccc3onc(C(=O)N4CCCCC4)c3c2)cc1OC [SN00797555]
  % Inhibition n=1 48h: 0.0%

## CCOC(=O)c1sc2ncnc(Nc3cn[nH]c3)c2c1C [SN00777183]
  Average % Inhibition 24h: 0.0%
  % Inhibition n=1 24h: 0.1%
  % Inhibition n=2 24h: 0.0%
  Average % Inhibition 48h: 30.8%
  % Inhibition n=1 48h: 42.7%
  % Inhibition n=2 48h: 18.9%

## CC(=O)c1c(C)[nH]c(C(=O)Nc2nc(-c3ccco3)c(-c3ccco3)s2)c1C [SN00769770]
  Average % Inhibition 24h: 25.0%
  % Inhibition n=1 24h: 21.9%
  % Inhibition n=2 24h: 28.1%
  Average % Inhibition 48h: 52.7%
  % Inhibition n=1 48h: 59.6%
  % Inhibition n=2 48h: 45.9%

## Cc1cc2c(cc1C)N(CC(=O)NCc1cccs1)C(=O)C1CCCC1=N2 (stereo not shown) [SN00789389]
  % Inhibition n=1 48h: 11.1%

## O=C(Cc1ccccc1[N+](=O)[O-])N1CCN(C(=O)c2ccc3c(c2)OCO3)CC1 [SN00774731]
  % Inhibition n=1 48h: 9.4%

## Cc1sc2ncn(CCN(C)C)c(=O)c2c1C(=O)Nc1ccc(S(N)(=O)=O)nc1 [SN00803001]
  % Inhibition n=1 48h: 26.5%

## O=C(NCc1cccc(C(F)(F)F)c1)C1CCCN(c2nccnc2Oc2ccccc2)C1 (stereo not shown) [SN00797123]
  % Inhibition n=1 48h: 15.6%

## COCC(=O)N1CCC(Oc2ncccc2C(=O)N(C)C)CC1 [SN00800001]
  % Inhibition n=1 48h: 4.8%

## Cc1cc(C)c(S(=O)(=O)N2CCc3[nH]cnc3C2)cc1C [SN00798786]
  % Inhibition n=1 48h: 0.0%

## CCCCN(CCCNC(=O)c1c(C)oc2nc[nH]c(=O)c12)Cc1ccccc1 [SN00784186]
  % Inhibition n=1 48h: 16.8%

## Cc1ccc2c(c1)N=C(c1ccc(C)o1)N=C(c1cccs1)N2 [SN00785905]
  Average % Inhibition 24h: 15.2%
  % Inhibition n=1 24h: 22.4%
  % Inhibition n=2 24h: 8.0%
  Average % Inhibition 48h: 54.6%
  % Inhibition n=1 48h: 69.6%
  % Inhibition n=2 48h: 39.6%

## CC(NC(=O)C1CCOCC1)c1nc(-c2cccnc2)cs1 (stereo not shown) [SN00769908]
  % Inhibition n=1 48h: 0.0%
